Experimental data: publication PMC11661381, “Covalent-fragment screening identifies selective inhibitors of multiple Staphylococcus aureus serine hydrolases important for growth and biofilm formation” (Research Square, 2024)

Assays:
[1] = biological target: T1, Fph enzymes in live S. aureus cells (USA300) (Staphylococcus aureus, UniProt Q2FDS6); experiment: Competition of FP-alkyne labeling in live S. aureus cells; assay type: cell-based; conditions: live cells, doses 5–100 μM, 120 min preincubation
T1 construct: endogenous in cells; host or cells: live S. aureus USA300 (LAC) wild-type cells
T1 sequence (Q2FDS6 whole entry): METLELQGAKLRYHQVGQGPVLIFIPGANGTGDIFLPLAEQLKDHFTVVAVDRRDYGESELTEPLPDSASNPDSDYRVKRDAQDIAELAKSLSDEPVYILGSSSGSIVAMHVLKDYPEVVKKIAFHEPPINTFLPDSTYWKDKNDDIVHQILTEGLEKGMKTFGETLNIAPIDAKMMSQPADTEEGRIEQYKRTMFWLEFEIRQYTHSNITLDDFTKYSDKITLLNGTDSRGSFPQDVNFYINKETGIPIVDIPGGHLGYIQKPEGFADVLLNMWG
Description: (§1) One colony of each of S. aureus wild-type and transposon mutants fphB::Tn, fphE::Tn and fphH::Tn picked from growth on a Tryptic soya agar plate were inoculated in 5 mL of Tryptic soya broth (TSB). The overnight bacterial cultures were spun down at 5,000 g for 10 min and pellet was collected. The pellets were washed twice in 1X PBS buffer and resuspended in the same buffer. Cells were first preincubated with the indicated concentrations of inhibitors for 2hr at 37°C. The cells were washed twice with 1X PBS buffer. The resuspended pellets were incubated with Fluorophosphonate-alkyne (FP-alkyne) for 30 min at 37°C. Cells were washed again twice with 1X PBS buffer and resuspended in with 1X PBS and 0.1% Triton–X and lysed by beat beating at 4°C. Next, lysed cells (20 μL) were mixed with 2.16 μL of freshly prepared click mix (0.5 μL of 50 mM CuSO4 in H2O, 1.16 μL of 100 mM BTTAA in DMSO, and 0.5 μL of N3-Cy5 in DMSO) and 1.16 μL of 300 mM sodium ascorbate solution in H2O and incubated at 37 °C for 30 min. Next step, 20 μL of 4X SDS loading buffer was added in each sample and boiled at 100 °C for 10 min. The processed samples were allowed to cool and analyzed by SDS-PAGE (12%) running at 120 V in an electrophoresis chamber. Cy5 fluorescence was imaged using the Cy5 channel on a Typhoon 9410 Imager (Amersham Biosciences).

[2] = system: Fph enzymes in live S. aureus cells (USA300); experiment: as above; assay type: cell-based, Staphylococcus aureus; conditions: 100 μM compound, live S. aureus cells
Description: as §1

[3] = Cytotoxicity assay (CellTiter-Blue); assay type: cell-based; conditions: human; HEK293 cells, 48hr of incubation
rFphH = biological target: T2, rFphH (Staphylococcus aureus, UniProt A0A0H2XJL0); experiment: FP-Cy5 active site labeling of recombinant protein, rFphH; assay type: binding; conditions: recombinant protein
T2 construct: otherwise full-length FphE (Uniprot ID Q2FDS6) and FphH (A0A0H2XJL0) proteins; His6 (3C-cleavable, pETNKI-his-3C-LIC vector) (N); made in house; E. coli is inferred from the pET28a-type vector, IPTG induction and LB/kanamycin
T2 sequence (A0A0H2XJL0 1-246): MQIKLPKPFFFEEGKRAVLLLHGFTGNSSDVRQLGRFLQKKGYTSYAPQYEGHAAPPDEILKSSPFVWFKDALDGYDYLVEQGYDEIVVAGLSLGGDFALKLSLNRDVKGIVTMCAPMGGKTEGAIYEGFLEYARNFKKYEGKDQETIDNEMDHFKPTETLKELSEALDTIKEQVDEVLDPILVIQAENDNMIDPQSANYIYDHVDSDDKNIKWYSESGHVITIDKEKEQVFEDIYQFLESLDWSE
Description: For activity-based protein labeling experiments, 500 nM of rFphB, rFphE and rFphH in 1X PBS and 0.1% Triton–X were preincubated with different concentrations of inhibitors or DMSO for 2hr at room temperature, followed by adding 300 nM of fluorophosphonate (FP) alkyne and incubated for 30 min at room temperature. Next, 20 μL of the reaction volume were mixed with 2.16 μL of freshly prepared click mix (0.5 μL of 50 mM CuSO4 in H2O, 1.16 μL of 100 mM BTTAA in DMSO, and 0.5 μL of N3-Cy5 in DMSO) and 1.16 μL of 300 mM sodium ascorbate solution in H2O. Samples were incubated at 37°C for 30 min, boiled in SDS loading buffer and analyzed by SDS–PAGE. Cy5 fluorescence was imaged using the Cy5 channel on a Typhoon 9410 Imager (Amersham Biosciences).

Pseudomonas aeruginosa = experiment: Bacterial growth inhibition assay, P. aeruginosa; assay type: cell-based
Description: Bacteria were streaked from glycerol stocks onto agar plates and grown overnight at 37°C. A single colony was inoculated in either Tryptic Soy Broth (TSB; Sigma-Aldrich, St. Louis, MO; used for most species) or Bacto Brain Heart Infusion (BHI; Becton, Dickinson, and Company, Franklin Lakes, NJ; used for L. monocytogenes and S. pyogenes) and grown at 37°C shaking until mid-exponential phase (OD600 = 0.5), then diluted 1:10 in cation-adjusted Mueller Hinton Broth (MHB2, Millipore Sigma, Bedford, MA; used for most species) or BHI (for L. monocytogenes and S. pyogenes). 15 μl of this dilution was added to 135 μl of MHB2 or BHI in a flat-bottom clear 96-well plate for a starting inoculum of ~ 5 × 10^5 CFU/ml.
For bacterial growth inhibition assay, wild-type S. aureus and transposon mutants (fphB::Tn, fphE::Tn and fphH::Tn) were grown with compounds at final concentrations ranging from 1–100 μM and compared to growth in media with an equivalent percentage of DMSO. […] All growth curves were repeated at least twice and analyzed in GraphPad Prism 10.0 software. […] The cultures were incubated overnight at 37°C, 5% CO2 before their optical density was read. The EC50 of the antibiotics against the bacteria in the presence or absence of N34 were determined by fitting the normalized data into a four-parameter logistic model in GraphPad Prism 10.0 software.

SMILES: OB(O)c1csc2ccccc12 [Z27, Benzo[b]thiophen-3-ylboronic acid]
- concentration completely inhibiting FphE labeling [1]: ≥ 50 µM
- competition of FP labeling in live cells (in words) [2]: only blocked FP labeling of FphE in live cells
- CC50 at 48 h [3]: > 200 µM
- concentration inhibiting FP-Cy5 labeling of rFphH (rFphH): > 50 µM
- growth defect (in words) (Pseudomonas aeruginosa): no significant growth defect
